Experimental data taken from PubChem BioAssay AID248 (DTP/NCI, 2004).
Inconclusive results and toxic doses are left out.

Test system: L1210 leukemia ip in BDF1 mice, survival T/C
Assay: NCI In Vivo Anticancer Drug Screen. Data for tumor model L1210 Leukemia (intraperitoneal) in B6D2F1 (BDF1) mice
Settings: endpoint: mean survival time, higher = longer survival
How it was run: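 Transplanted-tumor mice were given test agent; controls received vehicle only. Survival readings from the two groups were divided (treated over control).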

[1] = dose: 100.0 mg/kg/injection, schedule: Q01DX001 (ip), vehicle: carboxymethylcellulose (CMC)
[2] = dose: 200.0 mg/kg/injection, schedule: Q01DX001 (ip), vehicle: carboxymethylcellulose (CMC)
[3] = dose: 400.0 mg/kg/injection, schedule: Q01DX001 (ip), vehicle: carboxymethylcellulose (CMC)
[4] = dose: 100.0 mg/kg/injection, schedule: Q01DX001 (ip), vehicle: saline
[5] = dose: 200.0 mg/kg/injection, schedule: Q01DX001 (ip), vehicle: saline
[6] = dose: 400.0 mg/kg/injection, schedule: Q01DX001 (ip), vehicle: saline
[7] = dose: 100.0 mg/kg/injection, schedule: Q04DX003 (ip), vehicle: saline with Tween-80
[8] = dose: 200.0 mg/kg/injection, schedule: Q04DX003 (ip), vehicle: saline with Tween-80
[9] = dose: 400.0 mg/kg/injection, schedule: Q04DX003 (ip), vehicle: saline with Tween-80
[10] = dose: 100.0 mg/kg/injection, schedule: Q04DX002 (ip), vehicle: saline with Tween-80
[11] = dose: 200.0 mg/kg/injection, schedule: Q04DX002 (ip), vehicle: saline with Tween-80
[12] = dose: 400.0 mg/kg/injection, schedule: Q04DX002 (ip), vehicle: saline with Tween-80
[13] = dose: 100.0 mg/kg/injection, schedule: Q01DX009 (ip), vehicle: saline with Tween-80
[14] = dose: 200.0 mg/kg/injection, schedule: Q01DX009 (ip), vehicle: saline with Tween-80
[15] = dose: 100.0 mg/kg/injection, schedule: Q01DX009 (ip), vehicle: Klucel (hydroxypropylcellulose) (HPC)
[16] = dose: 200.0 mg/kg/injection, schedule: Q01DX009 (ip), vehicle: Klucel (hydroxypropylcellulose) (HPC)
[17] = dose: 400.0 mg/kg/injection, schedule: Q01DX009 (ip), vehicle: Klucel (hydroxypropylcellulose) (HPC)

## CN(C)c1c(F)c(F)c(N=Nc2ccccc2)c(F)c1F
[1]
  T/C: 98 % of control
[2]
  T/C: 114 % of control
[3]
  T/C: 98 % of control

## CSC1=NCCN1
dose: 100.0 mg/kg/injection, schedule: Q01DX009 (ip), vehicle: saline
  T/C: 104 % of control
dose: 200.0 mg/kg/injection, schedule: Q01DX009 (ip), vehicle: saline
  T/C: 100 % of control
dose: 400.0 mg/kg/injection, schedule: Q01DX009 (ip), vehicle: saline
  T/C: 104 % of control

## CCC[CH2][Ge]([CH2]CCC)([CH2]CCC)[N]1C(=O)c2ccccc2C1=O
dose: 50.0 mg/kg/injection, schedule: Q01DX001 (ip), vehicle: carboxymethylcellulose (CMC)
  T/C: 102 % of control
dose: 50.0 mg/kg/injection, schedule: Q01DX001 (ip), vehicle: saline
  T/C: 100 % of control
[1]
  T/C: 96 % of control
[4]
  T/C: 102 % of control
[2]
  T/C: 103 % of control
[5]
  T/C: 96 % of control
[3]
  T/C: 105 % of control
[6]
  T/C: 108 % of control

## CC(C)(CO)NCc1ccc(Cl)cc1
[4]
  T/C: 93 % of control
[5]
  T/C: 97 % of control

## O=C1C2C3C=CC(C3)C2C(=O)N1c1ccccc1 (stereo not given)
[7]
  T/C: 96 % of control
[8]
  T/C: 101 % of control
[9]
  T/C: 107 % of control

## CCOC(=O)C(Br)C(=O)OCC
dose: 18.75 mg/kg/injection, schedule: Q01DX009 (ip), vehicle: saline with Tween-80
  T/C: 97 % of control

## NS(=O)(=O)c1ccc(N=NN2CCOCC2)cc1
[10]
  T/C: 115 % of control
[11]
  T/C: 108 % of control
[12]
  T/C: 115 % of control

## CC(C)=CC(=O)c1ccccc1
dose: 100.0 mg/kg/injection, schedule: Q01DX001 (ip), vehicle: acetone
  T/C: 100 % of control
dose: 200.0 mg/kg/injection, schedule: Q01DX001 (ip), vehicle: acetone
  T/C: 94 % of control
dose: 400.0 mg/kg/injection, schedule: Q01DX001 (ip), vehicle: acetone
  T/C: 103 % of control

## C=CC1C[N+]2(SS(=O)(=O)O)CCC1CC2C(O)c1ccnc2ccc(OC)cc12 (stereo not given)
dose: 18.8 mg/kg/injection, schedule: Q01DX009 (ip), vehicle: saline
  T/C: 91 % of control
dose: 37.5 mg/kg/injection, schedule: Q01DX009 (ip), vehicle: saline
  T/C: 94 % of control
dose: 75.0 mg/kg/injection, schedule: Q01DX009 (ip), vehicle: saline
  T/C: 88 % of control

## CC(Cl)CN(N=O)C(=O)NC1CCCCC1 (stereo not given)
dose: 16.0 mg/kg/injection, schedule: Q01DX001 (ip), vehicle: other
  T/C: 96 % of control
dose: 31.0 mg/kg/injection, schedule: Q01DX001 (ip), vehicle: other
  T/C: 104 % of control
dose: 62.0 mg/kg/injection, schedule: Q01DX001 (ip), vehicle: other
  T/C: 102 % of control
dose: 125.0 mg/kg/injection, schedule: Q01DX001 (ip), vehicle: other
  T/C: 104 % of control
dose: 187.0 mg/kg/injection, schedule: Q01DX001 (ip), vehicle: other
  T/C: 117 % of control
dose: 250.0 mg/kg/injection, schedule: Q01DX001 (ip), vehicle: other
  T/C: 94 % of control
dose: 375.0 mg/kg/injection, schedule: Q01DX001 (ip), vehicle: other
  T/C: 122 % of control
dose: 500.0 mg/kg/injection, schedule: Q01DX001 (ip), vehicle: other
  T/C: 167 % of control
dose: 750.0 mg/kg/injection, schedule: Q01DX001 (ip), vehicle: other
  T/C: 187 % of control

## CC(=O)Nc1ccc([N+](=O)[O-])cc1
dose: 100.0 mg/kg/injection, schedule: Q04DX002 (ip), vehicle: gum acacia
  T/C: 98 % of control
dose: 200.0 mg/kg/injection, schedule: Q04DX002 (ip), vehicle: gum acacia
  T/C: 88 % of control
dose: 400.0 mg/kg/injection, schedule: Q04DX002 (ip), vehicle: gum acacia
  T/C: 107 % of control

## CCOC(=O)C(CNc1cccc2ccncc12)C(=O)OCC
dose: 50.0 mg/kg/injection, schedule: Q01DX009 (ip), vehicle: saline with Tween-80
  T/C: 109 % of control
[13]
  T/C: 94 % of control
[14]
  T/C: 115 % of control

## CC1=NNC(=O)C1CCO (stereo not given)
dose: 25.0 mg/kg/injection, schedule: Q01DX009 (ip), vehicle: Klucel (hydroxypropylcellulose) (HPC)
  T/C: 98 % of control
dose: 50.0 mg/kg/injection, schedule: Q01DX009 (ip), vehicle: Klucel (hydroxypropylcellulose) (HPC)
  T/C: 98 % of control
[15]
  T/C: 92 % of control
dose: 100.0 mg/kg/injection, schedule: Q04DX003 (ip), vehicle: Klucel (hydroxypropylcellulose) (HPC)
  T/C: 89 % of control
[16]
  T/C: 95 % of control
dose: 200.0 mg/kg/injection, schedule: Q04DX003 (ip), vehicle: Klucel (hydroxypropylcellulose) (HPC)
  T/C: 96 % of control
[17]
  T/C: 97 % of control
dose: 400.0 mg/kg/injection, schedule: Q04DX003 (ip), vehicle: Klucel (hydroxypropylcellulose) (HPC)
  T/C: 100 % of control

## Nc1ccc2oc3cccc(N)c3c(=O)c2c1
[4]
  T/C: 94 % of control
[5]
  T/C: 96 % of control
[6]
  T/C: 96 % of control

## COc1ccc(C2CCc3cc4c(cc3/C2=N/O)OCO4)cc1OC (stereo not given)
[13]
  T/C: 98 % of control
[7]
  T/C: 90 % of control
[14]
  T/C: 92 % of control
[8]
  T/C: 90 % of control
dose: 400.0 mg/kg/injection, schedule: Q01DX009 (ip), vehicle: saline with Tween-80
  T/C: 105 % of control
[9]
  T/C: 91 % of control

## [Br][Pb]([c]1ccccc1)([c]1ccccc1)[c]1ccccc1
dose: 1.5 mg/kg/injection, schedule: Q01DX009 (ip), vehicle: saline
  T/C: 103 % of control
dose: 1.56 mg/kg/injection, schedule: Q04DX003 (ip), vehicle: acetone
  T/C: 93 % of control
dose: 3.12 mg/kg/injection, schedule: Q01DX009 (ip), vehicle: saline
  T/C: 100 % of control
dose: 3.12 mg/kg/injection, schedule: Q04DX003 (ip), vehicle: acetone
  T/C: 91 % of control
dose: 6.25 mg/kg/injection, schedule: Q01DX009 (ip), vehicle: saline
  T/C: 92 % of control
dose: 6.25 mg/kg/injection, schedule: Q04DX003 (ip), vehicle: acetone
  T/C: 88 % of control

## O=C(c1ccccc1)C1Cc2ccccc2C1=O (stereo not given)
[15]
  T/C: 100 % of control
dose: 100.0 mg/kg/injection, schedule: Q04DX003 (ip), vehicle: saline
  T/C: 102 % of control
[16]
  T/C: 114 % of control
dose: 200.0 mg/kg/injection, schedule: Q04DX003 (ip), vehicle: saline
  T/C: 102 % of control
[17]
  T/C: 97 % of control
dose: 400.0 mg/kg/injection, schedule: Q04DX003 (ip), vehicle: saline
  T/C: 102 % of control

## ClCC1COC(c2ccccc2)O1 (stereo not given)
dose: 5.8 mg/kg/injection, schedule: Q01DX Z (ip), vehicle: methylcellulose (MC)
  T/C: 112 % of control
dose: 8.8 mg/kg/injection, schedule: Q01DX Z (ip), vehicle: methylcellulose (MC)
  T/C: 102 % of control
dose: 13.3 mg/kg/injection, schedule: Q01DX Z (ip), vehicle: methylcellulose (MC)
  T/C: 115 % of control
dose: 20.0 mg/kg/injection, schedule: Q01DX Z (ip), vehicle: methylcellulose (MC)
  T/C: 97 % of control

## O=C(Nc1cccc(Cl)c1)OCCN(CCOC(=O)Nc1cccc(Cl)c1)Cc1ccccc1
[4]
  T/C: 106 % of control
[5]
  T/C: 95 % of control
[6]
  T/C: 97 % of control

## [Se]=P(C#Cc1ccccc1)(C#Cc1ccccc1)C#Cc1ccccc1
dose: 100.0 mg/kg/injection, schedule: Q01DX001 (ip), vehicle: saline with Tween-80
  T/C: 87 % of control
dose: 200.0 mg/kg/injection, schedule: Q01DX001 (ip), vehicle: saline with Tween-80
  T/C: 93 % of control
dose: 400.0 mg/kg/injection, schedule: Q01DX001 (ip), vehicle: saline with Tween-80
  T/C: 87 % of control

## Cn1c(=O)c2c(nc(C3CC=CCC3)n2C)n(C)c1=O (stereo not given)
dose: 50.0 mg/kg/injection, schedule: Q01DX001 (ip), vehicle: other
  T/C: 98 % of control

## CCCCCCCCCC(CCCCCCCCC)NCC(C)OC(=O)c1ccc([N+](=O)[O-])cc1 (stereo not given)
dose: 75.0 mg/kg/injection, schedule: Q01DX001 (ip), vehicle: acetone
  T/C: 95 % of control
dose: 150.0 mg/kg/injection, schedule: Q01DX001 (ip), vehicle: acetone
  T/C: 95 % of control
dose: 300.0 mg/kg/injection, schedule: Q01DX001 (ip), vehicle: acetone
  T/C: 94 % of control

## COc1ccc(OC)c(NC(=O)Oc2cc(C)c(Cl)c(C)c2)c1
[10]
  T/C: 93 % of control
[11]
  T/C: 96 % of control
[12]
  T/C: 101 % of control
